In patent US11230538B2, “Herbicides” (SYNGENTA PARTICIPATIONS AG, priority 2016, dated 2022):

Assays:
Format in all cases: in vivo
[1] = tested on: Alopecurus myosuroides (ALOMY); test: B1 Pre-emergence herbicidal activity; parameters: key: 5=total damage to plant; 0=no damage to plant; conditions: pre-emergence application, evaluated after 13 days
Description: (§1) Seeds of a variety of test species were sown in standard soil in pots: Triticum aestivium (TRZAW), Avena fatua (AVEFA), Alopecurus myosuroides (ALOMY), Echinochloa crus-galli (ECHCG), Lolium perenne (LOLPE), Zea Mays (ZEAMX), Abutilon theophrasti (ABUTH), Amaranthus retroflexus (AMARE) and Setaria fabenr (SETFA). After cultivation for one day (pre-emergence) under controlled conditions in a glasshouse (at 24/16° C., day/night; 14 hours light; 65% humidity), the plants were sprayed with an aqueous spray solution derived from the formulation of the technical active ingredient in acetone I water (50:50) solution containing 0.5% Tween 20 (polyoxyethelyene sorbitan monolaurate, CAS RN 9005-64-5). The test plants were then grown in a glasshouse under controlled conditions (at 24/16° C., day/night; 14 hours light; 65% humidity) and watered twice daily. After 13 days, the test was evaluated (5=total damage to plant; 0=no damage to plant).

[2] = tested on: Avena fatua (AVEFA); test: B1 Pre-emergence herbicidal activity; parameters: key: 5=total damage to plant; 0=no damage to plant; conditions: pre-emergence application, evaluated after 13 days
Description: as §1

[3] = tested on: Triticum aestivium (TRZAW); test: B1 Pre-emergence herbicidal activity; parameters: key: 5=total damage to plant; 0=no damage to plant; conditions: pre-emergence application, evaluated after 13 days
Description: as §1

[4] = tested on: Echinochloa crus-galli (ECHCG); test: B1 Pre-emergence herbicidal activity; parameters: key to Pre-emergence herbicidal activity, ECHCG (damage score 0-5): 5=total damage to plant; 0=no damage to plant; conditions: pre-emergence application, evaluated after 13 days
Description: as §1

[5] = tested on: Lolium perenne (LOLPE); test: B1 Pre-emergence herbicidal activity; parameters: key to Pre-emergence herbicidal activity, LOLPE (damage score 0-5): 5=total damage to plant; 0=no damage to plant; conditions: pre-emergence application, evaluated after 13 days
Description: as §1

[6] = tested on: Setaria fabenr (SETFA); test: B1 Pre-emergence herbicidal activity; parameters: key to Pre-emergence herbicidal activity, SETFA (damage score 0-5): 5=total damage to plant; 0=no damage to plant; conditions: pre-emergence application, evaluated after 13 days
Description: as §1

[7] = tested on: Echinochloa crus-galli (ECHCG); test: B2 Post-emergence herbicidal activity; conditions: post-emergence application, evaluated after 13 days
Description: (§2) Seeds of a variety of test species were sown in standard soil in pots: Triticum aestivium (TRZAW), Avena fatua (AVEFA), Alopecurus myosuroides (ALOMY), Echinochloa crus-galli (ECHCG), Lolium perenne (LOLPE), Zea Mays (ZEAMX), Abutilon theophrasti (ABUTH), Amaranthus retroflexus (AMARE) and Setaria fabenri (SETFA). After 8 days cultivation (post-emergence) under controlled conditions in a glasshouse (at 24/16° C., day/night; 14 hours light; 65% humidity), the plants were sprayed with an aqueous spray solution derived from the formulation of the technical active ingredient in acetone I water (50:50) solution containing 0.5% Tween 20 (polyoxyethelyene sorbitan monolaurate, CAS RN 9005-64-5). The test plants were then grown in a glasshouse under controlled conditions (at 24/16° C., day/night; 14 hours light; 65% humidity) and watered twice daily. After 13 days, the test was evaluated (5=total damage to plant; 0=no damage to plant).

[8] = tested on: Alopecurus myosuroides (ALOMY); test: B2 Post-emergence herbicidal activity; parameters: key: 5=total damage to plant; 0=no damage to plant; conditions: post-emergence application, evaluated after 13 days
Description: as §2

[9] = tested on: Setaria fabenri (SETFA); test: B2 Post-emergence herbicidal activity; parameters: key: 5=total damage to plant; 0=no damage to plant; conditions: post-emergence application, evaluated after 13 days
Description: as §2

[10] = tested on: Triticum aestivium (TRZAW); test: B2 Post-emergence herbicidal activity; parameters: key: 5=total damage to plant; 0=no damage to plant; conditions: post-emergence application, evaluated after 13 days
Description: as §2

| Compound | Pre-emergence herbicidal activity, ALOMY (damage score 0-5) ([1]; rate 1000 g/ha) | Pre-emergence herbicidal activity, AVEFA (damage score 0-5) ([2]; rate 1000 g/ha) | Pre-emergence herbicidal activity, TRAZW (damage score 0-5) ([3]; rate 1000 g/ha) | Pre-emergence herbicidal activity, ECHCG (damage score 0-5) ([4]; rate 1000 g/ha) | Pre-emergence herbicidal activity, LOLPE (damage score 0-5) ([5]; rate 1000 g/ha) | Pre-emergence herbicidal activity, SETFA (damage score 0-5) ([6]; rate 1000 g/ha) | Post-emergence herbicidal activity, ECHCG (damage score 0-5) ([7]; rate 1000 g/ha) | Post-emergence herbicidal activity, ALOMY (damage score 0-5) ([8]; rate 1000 g/ha) | Post-emergence herbicidal activity, SETFA (damage score 0-5) ([9]; rate 1000 g/ha) | Post-emergence herbicidal activity, TRAZW (damage score 0-5) ([10]; rate 1000 g/ha) | Pre-emergence herbicidal activity, ALOMY (damage score 0-5) ([1]; rate 250 g/ha) | Pre-emergence herbicidal activity, AVEFA (damage score 0-5) ([2]; rate 250 g/ha) | Pre-emergence herbicidal activity, TRAZW (damage score 0-5) ([3]; rate 250 g/ha) | Pre-emergence herbicidal activity, ECHCG (damage score 0-5) ([4]; rate 250 g/ha) | Pre-emergence herbicidal activity, LOLPE (damage score 0-5) ([5]; rate 250 g/ha) | Pre-emergence herbicidal activity, SETFA (damage score 0-5) ([6]; rate 250 g/ha) | Post-emergence herbicidal activity, ECHCG (damage score 0-5) ([7]; rate 250 g/ha) | Post-emergence herbicidal activity, ALOMY (damage score 0-5) ([8]; rate 250 g/ha) | Post-emergence herbicidal activity, SETFA (damage score 0-5) ([9]; rate 250 g/ha) | Post-emergence herbicidal activity, TRAZW (damage score 0-5) ([10]; rate 250 g/ha) |
| --- | --- | --- | --- | --- | --- | --- | --- | --- | --- | --- | --- | --- | --- | --- | --- | --- | --- | --- | --- | --- |
| CC(C)C(=O)N(COCC(C)(C)C)c1ccc(-c2cncc(F)c2)nc1C(F)(F)F [Compound C89] | 0 | 1 | 0 | 3 | 0 | 4 | 4 | 0 | 4 | 0 | – | – | – | – | – | – | – | – | – | – |
| CCC(=O)N(CCOC)c1ccc(-c2cncc(F)c2)nc1C(F)(F)F [Compound C96] | 1 | 1 | 0 | 3 | 0 | 5 | 3 | 0 | 4 | 0 | – | – | – | – | – | – | – | – | – | – |
| CCC(=O)N(CC(C)C)c1ccc(-c2cncc(F)c2)nc1C(F)(F)F [Compound C97] | 0 | 0 | 0 | 1 | 0 | 3 | 2 | 0 | 3 | 0 | – | – | – | – | – | – | – | – | – | – |
| CCC(=O)N(CCSC)c1ccc(-c2cncc(F)c2)nc1C(F)(F)F [Compound C98] | 0 | 0 | 0 | 1 | 1 | 3 | 1 | 0 | 0 | 0 | – | – | – | – | – | – | – | – | – | – |
| CCC(=O)N(c1ccc(-c2cncc(F)c2)nc1C(F)(F)F)C(C)C [Compound C100] | 0 | 1 | 0 | 3 | 1 | 5 | 4 | 0 | 5 | 0 | – | – | – | – | – | – | – | – | – | – |
| CCC(=O)N(Cc1ccc(Cl)cc1)c1ccc(-c2cncc(F)c2)nc1C(F)(F)F [Compound C101] | 0 | 1 | 0 | 1 | 0 | 1 | 2 | 0 | 2 | 0 | – | – | – | – | – | – | – | – | – | – |
| CCC(=O)N(Cc1cnc(Cl)s1)c1ccc(-c2cncc(F)c2)nc1C(F)(F)F [Compound C102] | 0 | 1 | 0 | 2 | 0 | 4 | 2 | 0 | 2 | 0 | – | – | – | – | – | – | – | – | – | – |
| CSCCN(C(=O)c1ccccc1)c1ccc(-c2cncc(F)c2)nc1C(F)(F)F [Compound C104] | – | – | – | – | – | – | – | – | – | – | 0 | 0 | 0 | 0 | 0 | 3 | 1 | 0 | 2 | 0 |
| COCC(=O)N(CC=C(C)C)c1ccc(-c2cncc(F)c2)nc1C(F)(F)F [Compound C106] | 0 | 2 | 0 | 3 | 1 | 4 | 4 | 0 | 5 | 0 | – | – | – | – | – | – | – | – | – | – |
| CC(C)C(=O)N(CC(=O)N(C)C)c1ccc(-c2cncc(F)c2)nc1C(F)(F)F [Compound C107] | 0 | 1 | 0 | 3 | 0 | 5 | 4 | 0 | 5 | 0 | – | – | – | – | – | – | – | – | – | – |
